Data published in US9695119B2, “Methionine analogs and methods of using same” (Bioxiness Pharmaceuticals, Inc., priority 2008, dated 2017).
Like-named read-outs stand apart in the source and are kept apart here.

Experiments:
[1] = target: E. coli Methionyl-tRNA synthetase (Escherichia coli, UniProt P00959); experiment: Enzymatic aminoacylation tRNA charging assay; type: biochemical
Description: The assay system is as described by Hartman M et al, 2006 Enzymatic aminoacylation of tRNA with unnatural amino acids. PNAS. […] Each assay contains 40 mM Hepes (pH 7.4), 17 mM MgCl2, 45 mM KCl, 3.4 mM 2-mercaptoethanol, 6 mM ATP, 6% glycerol, 350 μM E. coli tRNA (Roche), 0.09 mg/mL BSA, 910 nM Methionyl-tRNA synthetase (MetRS) and amino acids in 100-1,000 μM range. […] Samples are transferred to ice bath to stop the reactions and then small aliquot (2 μL) samples are precipitated using 500 μL of 5% cold TCA onto Whatmann filter papers and vacuumed and then dried under a heat lamp. Radioactivity of each sample is measured as counts per minute (CPM), as compared to controls (without the analog). Results for the S enantiomer of I-A ((S)-2-amino-4-(methylthio)butane-1-sulfonic acid hydrochloride) are shown below in Table 11.

E. coli (DH5-α) = experiment: Growth inhibition of E. coli by methionine analogs, 96-well plate, OD 550 nm over time; type: cell-based; settings: E. coli, 12.5 mM, OD 550 nm
From the text: Comparative Minimum Bactericidal Concentration (MBC) results provide estimates of the susceptibility of various test articles against test organisms. A modification of the […] (NCCL) Standardized Protocol “Methods for dilution antimicrobial susceptibility tests for bacteria that grow aerobically” was used in these studies. Sterile Phosphate Buffer Saline (PBS) at pH 7.0 (vehicle) was used as the diluent. Use of such diluent allows for the determination of the intrinsic activity of our test articles in the absence of any interfering molecules. Specifically, each test article was diluted using 2-fold serial dilution in 96-well plate to give a range of concentrations from approximately 50 mM to 0.05 mM in a final volume of 0.1 mL. Each dilution was inoculated with 5×10^5 CFU/mL test bacteria. The initial optical density as absorbance of each well was read at OD 550 nm using ThermoMax plate reader. […] At various time intervals post-treatment, OD reading at 550 nm was recorded at various time intervals. FIG. 1A and Table 1 show time dependent growth inhibition capability of analogs on E. coli at 12.5 mM. For FIGS. 1A and 1B, the 96-well plate format was used to culture E. coli (DH5-α) cells in M9 minimal media supplemented with glucose (M9) or same media supplemented with a range of concentrations of various analogs. Experiments were carried out in duplicate.

[2] = system: CV-1 (African Green Monkey Kidney Cells) cells; settings: 60 min, pH 7
Description: Preliminary studies of cytotoxicity were performed in a mammalian cell viability assay.
CV-1 cells were propagated in DMEM plus 8% FBS according to supplier's recommendations. CV-1 cells were seeded at 1.5×10^4 cells per well in 96-well plates and incubated overnight at 37° C. On the day of testing, growth medium was aspirated from each well, and 20 μl fresh medium was added per well. Test articles were diluted from 50 mM to 0.05 mM by 2-fold serial dilution using PBS at pH 7.0 for each test article. After which 80 μl of each dilution was added to each well for a total volume of 100 μl per well. Following 60 minutes exposure at 37° C., test articles were aspirated and replaced with fresh 100 μl tissue culture media and incubated for 24 hours at 37° C. Next day cell culture media was removed and cell viability was determined by addition of WST-8 (Dojindo, Japan) reagent and the absorption at 450 nm read spectrophotometrically. Orange-red formazan, which is produced by live cells, is a direct measure of cell viability in this assay.
(§1) Results are expressed as percentage of cells surviving the treatment as compared to PBS.

L929 cells = settings: mouse, 60 min
Description: Cytotoxicity is assessed by a colorimetric assay system (Sagripanti J-L, Bonifacino A. Cytotoxicity of Liquid Disinfectants. Surgical Infections, 2000; 1(1): 3-14, the content of which is hereby incorporated by reference, particularly with respect to the experimental methods described therein), using 3′-(phenylamino-carbonyl)-3,4-tetrazo-lium-bis(4-methoxy-6-nitro) benzene sulfonic acid hydrate (XTT), ProCheck™ cell viability assay (Evaluation of a soluble tetrazolium/formazan assay for cell growth and drug sensitivity in culture using human and other tumor cell lines described by Scudiero D A, Shoemaker R A H, Paul K D, Monks A, Tierney S, Nofziger T H, Currens M J, Seniff D, Boyd M R. Cancer Res. 1988 Sep. 1; 48(17):4827-33, the content of which is hereby incorporated by reference, particularly with respect to the experimental methods described therein). Similar approaches for determining the cell viability are used by other investigators. Three cell types are used: […] (L929), primary human skin fibroblast and primary human keratinocyte cells cultured in Dulbecco Modified Eagle's Medium and Keratinocyte defined medium with corresponding growth factors plus antibiotics. Cells are trypsinized and counted under the microscope and seeded at 1000-to-2000 cells per well of a flat-bottom 96-well plate. Cells are allowed to grow overnight at 37° C. Tissue culture media is removed the following day and cells are rinsed with fresh media 1× and then left in 50 μL of tissue culture media. Test articles are prepared as 2-fold dilutions and 200 μL is added into each set of 4-wells (total volume per well is 250 μL). Cells are exposed to test articles for 60 min at room temperature. Immediately after the exposed time, test article from each well is removed and cells are fed with 250 μL of fresh media. Plates are incubated at 37° C. for 18-20 hr. The following day media is removed again and replaced with 100 μL/well of fresh media containing 10/100 μL XTT-reagent. Cells are incubated under growth conditions (5% CO2 at 37° C. humidified incubator), protected from light, until color development is achieved. Absorbance is read at 450 nm with reference wavelength at 750 nm using Molecular Device ThermoMax Plate reader, blanking the plate on the medium-only assay blank wells. Untreated cells receiving XTT reagents-only serve as positive cell proliferation control.
as §1

Sequence of E. coli Methionyl-tRNA synthetase (P00959 whole entry): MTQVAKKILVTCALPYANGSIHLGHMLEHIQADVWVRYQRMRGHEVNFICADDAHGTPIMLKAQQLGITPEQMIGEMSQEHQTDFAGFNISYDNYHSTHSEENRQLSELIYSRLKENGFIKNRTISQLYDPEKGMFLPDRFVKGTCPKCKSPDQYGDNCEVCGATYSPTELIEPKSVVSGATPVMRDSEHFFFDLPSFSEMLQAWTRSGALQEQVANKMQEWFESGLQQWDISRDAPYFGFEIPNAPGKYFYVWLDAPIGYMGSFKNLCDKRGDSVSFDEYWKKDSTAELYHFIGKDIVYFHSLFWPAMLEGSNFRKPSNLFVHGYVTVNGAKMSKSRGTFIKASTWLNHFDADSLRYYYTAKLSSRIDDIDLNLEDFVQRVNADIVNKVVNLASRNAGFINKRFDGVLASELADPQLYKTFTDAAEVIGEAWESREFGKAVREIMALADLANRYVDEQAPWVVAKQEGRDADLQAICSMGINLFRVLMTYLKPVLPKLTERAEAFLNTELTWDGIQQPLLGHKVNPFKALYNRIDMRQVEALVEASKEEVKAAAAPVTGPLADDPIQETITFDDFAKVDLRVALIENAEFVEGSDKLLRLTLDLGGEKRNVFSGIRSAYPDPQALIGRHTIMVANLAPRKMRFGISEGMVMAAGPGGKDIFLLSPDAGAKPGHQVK

| SMILES | Absorbance (E. coli (DH5-α); well 12, time 0 hrs) | Absorbance (E. coli (DH5-α); well 12, time 1 hrs) | Absorbance (E. coli (DH5-α); well 12, time 2 hrs) | Absorbance (E. coli (DH5-α); well 12, time 3 hrs) | Absorbance (E. coli (DH5-α); well 12, time 3.75 hrs) | Absorbance (E. coli (DH5-α); well 12, time 5 hrs) | Absorbance (E. coli (DH5-α); well 12, time 6.5 hrs) | Absorbance (E. coli (DH5-α); well 12, time 7.25 hrs) | Absorbance (E. coli (DH5-α); well 12, time 23 hrs) | Percentage of Surviving CV-1 cells relative to PBS ([2]; 0.1 mM) | Percentage of Surviving CV-1 cells relative to PBS ([2]; 0.2 mM) | Percentage of Surviving CV-1 cells relative to PBS ([2]; 0.39 mM) | Percentage of Surviving CV-1 cells relative to PBS ([2]; 0.78 mM) | Percentage of Surviving CV-1 cells relative to PBS ([2]; 1.56 mM) | Percentage of Surviving CV-1 cells relative to PBS ([2]; 3.13 mM) | Percentage of Surviving CV-1 cells relative to PBS ([2]; 6.25 mM) | Percentage of Surviving CV-1 cells relative to PBS ([2]; 12.5 mM) | Percentage of Surviving CV-1 cells relative to PBS ([2]; 25 mM) | Percentage of Surviving CV-1 cells relative to PBS ([2]; 50 mM) | Percentage of Surviving L929 cells relative to control (L929 cells; 0.1 mM) | also measured |
| --- | --- | --- | --- | --- | --- | --- | --- | --- | --- | --- | --- | --- | --- | --- | --- | --- | --- | --- | --- | --- | --- |
| CSCC[C@H](N)CS(=O)(=O)O.Cl [I-A, (S)-2-amino-4-(methylthio)butane-1-sulfonic acid hydrochloride] | – | – | – | – | – | – | – | – | – | – | – | – | – | – | – | – | – | – | – | – | Radioactivity, Methionyl-tRNA synthetase tRNA charging ([1]; Experiment #1, I-A 0.04 mM, 1 Minute): 2,476 Counts Per Minute; Radioactivity, Methionyl-tRNA synthetase tRNA charging ([1]; Experiment #1, I-A 0.04 mM, 10 Minutes): 3,466 Counts Per Minute; Radioactivity, Methionyl-tRNA synthetase tRNA charging ([1]; Experiment #1, I-A 0.20 mM, 1 Minute): 2,333 Counts Per Minute; Radioactivity, Methionyl-tRNA synthetase tRNA charging ([1]; Experiment #1, I-A 0.20 mM, 10 Minutes): 3,147 Counts Per Minute; Radioactivity, Methionyl-tRNA synthetase tRNA charging ([1]; Experiment #1, I-A 1.00 mM, 1 Minute): 2,372 Counts Per Minute; Radioactivity, Methionyl-tRNA synthetase tRNA charging ([1]; Experiment #1, I-A 1.00 mM, 10 Minutes): 3,218 Counts Per Minute; Radioactivity, Methionyl-tRNA synthetase tRNA charging ([1]; Experiment #1, I-A 5.00 mM, 1 Minute): 2,007 Counts Per Minute; Radioactivity, Methionyl-tRNA synthetase tRNA charging ([1]; Experiment #1, I-A 5.00 mM, 10 Minutes): 2,891 Counts Per Minute; Radioactivity, Methionyl-tRNA synthetase tRNA charging ([1]; Experiment #2, I-A 0.25 mM, 10 Minutes): 1,701 Counts Per Minute; Radioactivity, Methionyl-tRNA synthetase tRNA charging ([1]; Experiment #2, I-A 1.25 mM, 10 Minutes): 1,907 Counts Per Minute; Radioactivity, Methionyl-tRNA synthetase tRNA charging ([1]; Experiment #2, I-A 5.00 mM, 10 Minutes): 1,575 Counts Per Minute; Radioactivity, Methionyl-tRNA synthetase tRNA charging ([1]; Experiment #2, I-A 12.5 mM, 10 Minutes): 1,672 Counts Per Minute |
| CSCC[C@H](N)C(=O)NO.Cl [I-AA, (S)-2-amino-N-hydroxy-4-(methylthio)butanamide hydrochloride] | 0.084 | 0.113 | 0.130 | 0.133 | 0.109 | 0.118 | 0.110 | 0.100 | 0.130 | 97% | 95% | 96% | 96% | 100% | 100% | 99% | 101% | 99% | 72% | 100% | Percentage of Surviving L929 cells relative to control (L929 cells; 0.2 mM): 94%; Percentage of Surviving L929 cells relative to control (L929 cells; 0.39 mM): 89%; Percentage of Surviving L929 cells relative to control (L929 cells; 0.78 mM): 87%; Percentage of Surviving L929 cells relative to control (L929 cells; 1.56 mM): 87%; Percentage of Surviving L929 cells relative to control (L929 cells; 3.13 mM): 87%; Percentage of Surviving L929 cells relative to control (L929 cells; 6.25 mM): 85%; Percentage of Surviving L929 cells relative to control (L929 cells; 12.5 mM): 86%; Percentage of Surviving L929 cells relative to control (L929 cells; 25 mM): 85%; Percentage of Surviving L929 cells relative to control (L929 cells; 50 mM): 82% |
| CSCC[C@H](N)C(=O)O [Methionine] | 0.085 | 0.123 | 0.164 | 0.168 | 0.151 | 0.191 | 0.202 | 0.202 | 0.427 | 98% | 96% | 95% | 96% | 99% | 100% | 100% | 99% | 99% | 66% | 104% | Percentage of Surviving L929 cells relative to control (L929 cells; 0.2 mM): 101%; Percentage of Surviving L929 cells relative to control (L929 cells; 0.39 mM): 100%; Percentage of Surviving L929 cells relative to control (L929 cells; 0.78 mM): 95%; Percentage of Surviving L929 cells relative to control (L929 cells; 1.56 mM): 87%; Percentage of Surviving L929 cells relative to control (L929 cells; 3.13 mM): 86%; Percentage of Surviving L929 cells relative to control (L929 cells; 6.25 mM): 84%; Percentage of Surviving L929 cells relative to control (L929 cells; 12.5 mM): 85%; Percentage of Surviving L929 cells relative to control (L929 cells; 25 mM): 85%; Percentage of Surviving L929 cells relative to control (L929 cells; 50 mM): 81% |
